{
  "source": "patent US20190331687A1",
  "about": "“CANCER TREATMENT” (PFIZER INC., priority 2014, published 2019)",
  "system": "metastatic renal cell carcinoma (mRCC)",
  "test": "Study A4061032 (AXIS phase 3 trial): PFS and OS of axitinib-treated mRCC patients by tumor CD68 IHC stratum (median cut off)",
  "assay_type": "in vivo, human",
  "details": "for median OS / median progression free survival (PFS): regardless of prior treatment",
  "excerpt": "Study A4061032 (ClinicalTrials.gov Identifier: NCT00678392) was a phase 3 registrational trial entitled “Axitinib (AG-013736) as second line therapy for metastatic renal cell cancer: Axis trial”. […] A total of 650 patients were planned to be enrolled, and 723 subjects were eventually enrolled in the study.\nAs described in further detail in the Examples, formalin-fixed paraffin embedded (FFPE) tumor samples were collected from patients who participated in A4061032, and who provided specific consent for collection of tumor sample. Tumor myeloid (cluster of differentiation 68 “CD68”) or lymphocyte (cluster of differentiation 3 “CD3”) infiltration was assessed by immunohistochemistry (IHC) in tumor samples from 52 axitinib-treated patients. The aim was to investigate the potential association of these biomarkers with efficacy, consistent with the hypothesis that myeloid infiltration confers resistance to anti-angiogenic agents targeting the VEGF-VEGFR2 pathway (see Shojaei et al. (2007) Nat. Biotechnol. 25(8):911-920; and Lin et al. (2010) Eur. J. Cancer Suppl. 8(7): 191).\nThe evaluation of CD3 and CD68 was performed by image analysis from a whole slide scan. The region of interest was circled, and an image analysis algorithm was run. The percentage of positive cells (number of positive cells/total number of cells) and the density of positive cells (e.g. number of positive cells/mm^2) was measured. Some patients donated FFPE blocks, and some donated slides cut from blocks. Samples from all patients were analyzed, whether they were provided as slides or blocks.\nThis study was a 2-arm, randomized, open-label, multi-center phase 3 study of axitinib versus sorafenib in patients with metastatic renal cell carcinoma (mRCC), after failure following one prior systematic first-line regimen containing one or more of the following agents: sunitinib, bevacizumab+IFN α, temsirolimus, or cytokine(s). Overall, 723 patients with mRCC were randomized and enrolled in this study, among which 52 axitinib-treated patients were evaluable for immunohistochemistry (IHC) analysis; further, 33 of the 52 patients were previously treated with Sutent®.\nAll 52 patients were evaluable for both CD3 and CD68. Of the 52 CD3 and CD68 evaluable patients, 26 donated formalin-fixed paraffin embedded (FFPE) tumor blocks, and 26 donated slides for analysis. Mosaic Laboratories provided FFPE material representing human normal and human cancer. Specimens were procured under an IRB-reviewed protocol (MOS001) that allows for use of remnant, de-identified, or anonymized human samples for in vitro analysis under the guidelines defining ‘Exemption from Human Subject Research’ as defined by the Office of Human Research Protection. The CD68 mouse monoclonal KP1 antibody (Catalog# M0814, Lot#46406, Expiration date: September 2011) was purchased from Dako (Carpinteria, Calif., United States) and stored at 2-8° C. in accordance with accompanying documentation. The mouse IgG isotype control antibody (Lot#37211, Expiration date: July 2010) was purchased from Dako and stored at 2-8° C. in accordance with accompanying documentation. IHC was performed in accordance with Mosaic Laboratories' SOPs. The CD68 IHC assay was designed and validated to be compatible with CLIA guidelines for “homebrew” class I test validation.\nFor IHC biomarker analysis, the Biomarker Analysis Set was used, which included all patients who received at least one dose of study treatment. The following efficacy endpoints were analyzed: PFS, OS, and objective response rate (ORR). Summary statistics were provided for percent and density of positive cells by response category (complete response [CR]+partial response [PR] versus stable disease [SD]+progressive disease [PD]) for each marker). The Wilcoxon Rank Sum test was performed to test for difference between response categories. Fisher's exact test was used to test for association between response category and biomarker stratum using median value as cut off point.",
  "key": {"[1]": {"details": "patients with <median CD68 cell density (cut off 0.08 cells/mm^2)"}, "[2]": {"details": "patients with <median CD68 percentage of positive cells (cut off 5.21%)"}, "[3]": {"details": "patients with >=median CD68 cell density (cut off 0.08 cells/mm^2)"}, "[4]": {"details": "patients with >=median CD68 percentage of positive cells (cut off 5.21%)"}},
  "data": [
    {"smiles": "CNC(=O)c1ccccc1Sc1ccc2c(/C=C/c3ccccn3)n[nH]c2c1", "note": "[axitinib, 6-[2-(methylcarbamoyl)phenylsulfanyl]-3-E-[2-(pyridin-2-yl)ethenyl]indazole]", "values": [
      {"measurement": "hazard ratio (HR) for OS", "setting": ">=median vs <median CD68 values, all cases, not statistically significant", "result": "> 0.6"},
      {"measurement": "hazard ratio [HR] for PFS", "setting": ">=median vs <median CD68 values, logrank p-value<=0.01, all patients regardless of prior treatment", "result": 0.42},
      {"measurement": "median OS", "setting": "[1]", "result": 17.8, "unit": "months"},
      {"measurement": "median progression free survival (PFS)", "setting": "[1]", "result": 3.8, "unit": "months"},
      {"measurement": "median OS", "setting": "[2]", "result": 21.8, "unit": "months"},
      {"measurement": "median progression free survival (PFS)", "setting": "[2]", "result": 3.7, "unit": "months"},
      {"measurement": "median OS", "setting": "[3]", "result": 22.6, "unit": "months"},
      {"measurement": "median progression free survival (PFS)", "setting": "[3]", "result": 12.0, "unit": "months"},
      {"measurement": "median OS", "setting": "[4]", "result": 20.0, "unit": "months"},
      {"measurement": "median progression free survival (PFS)", "setting": "[4]", "result": 12.0, "unit": "months"}
    ]}
  ]
}
